Test results from patent US9856273B2, “ETP derivatives” (priority 2012, dated 2018).

Legend:
[1] = test system: HCC1937 triple negative breast cancer cells; test: Cell viability assay; type: cell-based
[2] = test system: MDA-MB-468 triple negative breast cancer cells; test: Cell viability assay; type: cell-based
[3] = test system: p16 tumor suppressor; test: Western blot, induction of p16; type: cell-based, human; settings: DU145 prostate cancer cells and A2058 melanoma cells
Method: (§1) Induction of p16, p53, p21waf1 and p27 (FIGS. 8 and 9): Western blot analyses were performed with specific antibodies. Briefly, human A2058 melanoma, DU145 prostate, A549 non-small lung and SKOV3 ovarian cancer cells were treated with ETP69. Whole-cell lysates (40 […]g) were resolved by SDS-PAGE. Primary specific antibodies to p53, p21^WAF1, p27(Kip1), p16 and Actin were diluted in PBS (pH 7.5) with 5% (w/v) nonfat milk and 0.1% (v/v) Tween-20 over night at 4° C. Horseradish peroxidase-conjugated secondary antibodies were incubated in PBS (pH 7.5) with 5% (w/v) nonfat milk and 0.1% (v/v) Tween-20 for 1 h at room temperature. Positive immuno-reactive proteins were detected using the ECL system (Pierce, Rockford, Ill.).

[4] = test system: p21WAF1 cyclin-dependent kinase inhibitor 1; test: Western blot, induction of p21WAF1; type: cell-based, human; settings: A2058, DU145, A549 and SKOV3 cells
Method: as §1

[5] = test system: A2058 melanoma SQ xenografts; type: in vivo, mouse; settings: A2058 xenograft, 20 mg/kg IP once daily for 13 days
Method: In Vivo Xenograft Procedures for Lung Cancer, Melanoma, and Ovarian Cancer (See FIGS. 15A, 15B, 16A, 16B, 17A, 17B, 18A and 18B): Human A2058 melanoma cells (3×10^6) were resuspended in serum-free RPMI1640 medium and subcutaneously injected into the flank of 5-6 weeks old Athymic female nude mouse (NCI). When palpable tumor sizes reached at approximately 100 mm^3, mice were divided into two groups (vehicle=5, treatment=5). Then, ETP69 was administered with intraperitoneal (IP) injection at 20 mg/kg with vehicle (10% DMSO+0.5% Teen 20+89.5% saline), once daily for 13 days. Tumor volumes were calculated by the formula 1/2a×b^2, where a is the long diameter, and b is the short diameter. Tumor volumes correlate with tumor weights. The statistical significance of group differences was analyzed using a Student's t-test with the two-tailed distribution. P values less than 0.05 were considered statistically significant.

[6] = test system: p53; test: QPCR of p53 expression in Panc1 cells; type: cell-based; settings: 100 nM-500 nM
Description: QPCR: Total RNA was isolated from cells using the RNeasy kit (Qiagen). The Tetro cDNA kit (Bioline) and SensiFast Probe kit (Bioline) were used to reverse-transcribe and amplify total RNA according to the manufacturer's protocol. The ProbeFinder software (Roche Applied Science) was used to design the primer sets for SUV39H1, p53 and GAPDH and to select the respective probes from the Universal ProbeLibrary (Roche Applied Science). Probe #13 and the following primers were used for the SUV39H1 assay: 5′ […] (SEQ ID NO: 1) and 5′ […] (SEQ ID NO:2). Probe #21 and the following primers were used for the p53 assay: 5′ […] (SEQ ID NO:3) and 5′ […] (SEQ ID NO:4). Probe #60 and the following primers were used for the GAPDH assay: 5′ agccacatcgctcagacac (SEQ ID NO:5) and 5′ gcccaatacgaccaaatcc (SEQ ID NO:6). All samples were run in triplicates. Amplifications were performed on a Bio-Rad CFX96 Touch Multiple-Color Real-time PCR Detection System. The data were normalized to the GAPDH expression and the relative expression levels were calculated using the 2^−ΔΔCt method.

**Q.** Which viability inhibition [1] does the source give for CN1C(=O)[C@@]23C[C@](C)(C#N)[C@H](c4ccc5c(c4)OCO5)N2C(=O)[C@]1(C)SS3 (racemic) [ETP69, Rac-(3S,6S,7S,8aS)-6-(Benzo[d][1,3]dioxol-5-yl)-2,3,7-trimethyl-1,4-dioxohexahydro-6H-3,8a-epidithiopyrrolo[1,2-a]pyrazine-7-carbonitrile] here?
**A.** viability inhibition

**Q.** What about the viability inhibition [2] of the same compound?
**A.** viability inhibition

**Q.** And the “induction of p16 tumor suppressor” value [3]?
**A.** induces

**Q.** And the “induction of p21WAF1” value [4]?
**A.** induces

**Q.** What about the toxicity symptoms [5] of the same compound?
**A.** no observable toxicity symptoms

**Q.** What about the tumor volume [5] of the same compound?
**A.** decreased

**Q.** And the tumor weight [5]?
**A.** decreased

**Q.** What about the “up-regulation of p53” value [6] of the same compound?
**A.** ≥ 3 fold
